From patent US11071769B2, “Lipo-glycopeptide cleavable derivatives and uses thereof” (Insmed Incorporated, priority 2017, dated 2021)
Converted amounts (≈) assume the structure as drawn.

Columns and labels:
[1] = test system: MRSA isolate ATCC BAA-1556; test: MIC, CLSI-guided broth susceptibility testing, MRSA 1556; format: cell-based, Staphylococcus aureus; conditions: for MIC Values, MRSA 1556: MRSA isolate ATCC BAA-1556; for MIC: Staphylococcus aureus, read-out: MIC Values, MRSA 1556
Procedure: (§1) Compounds of the invention were evaluated for their ability to inhibit bacterial growth in two MRS A strains—MRS A 1556 and MRS A 29213. Table 2 provides MIC concentrations for metabolites of the ester and amide compounds, RV80 (metabolite of RV65 ester) and RV82 (metabolite of RV62 amide). MIC values for vancomycin and telavancin are also provided.
(§2) MIC Testing: Glycopeptide compounds were dissolved in 100% DMSO. In vitro activities were determined using CLSI-guided broth susceptibility testing to measure drug minimum inhibitory concentrations (MICs) of the compounds against the quality control strain ATCC 29213 (MSSA) and the MRS A isolate ATCC BAA-1556.

[2] = test system: quality control strain ATCC 29213 (MSSA); test: MIC, CLSI-guided broth susceptibility testing, MSSA 29213; format: cell-based, Staphylococcus aureus; conditions: for MIC Values, MSSA 29213: ATCC 29213 (MSSA); for MIC: Staphylococcus aureus, read-out: MIC Values, MSSA 29213
Procedure: as §1, §2

[3] = Metabolism (hydrolysis) in rat plasma; format: in vitro ADME; conditions: 37° C.; for degradant detected in plasma: 50 μg/mL
Procedure: RV62 and RV65 were dissolved in 100% DMSO. Stock solutions were diluted using rat plasma to contain less than 1% organic solvent with a final drug concentration of 50 μg/mL. Samples were briefly vortexed and then incubated in a shaker set to 37° C. and 300 rpm. Aliquots were removed at specified time points and store at −80° C. until extraction and analysis. Samples were extracted using a solution of 10% TCA and analyzed using LCMS.

[4] = Degradation (hydrolysis) in Tris buffer by HPLC; format: physicochemical; conditions: 1 mM Tris buffer pH 6.99, 40° C., 72 h
Procedure: RV62 and RV65 degradation was determined according to the following procedures.
Compounds were dissolved and diluted with 1 mM Tris buffer (pH 6.99) to achieve a concentration of 54 μg/mL (stock solution). 0.5 mL of stock solution was further diluted with acetonitrile to a total volume of 10 mL. The stock solution was incubated at 40° C., with samples withdrawn at 3, 6, 24, and 72 h and tested by HPLC.
HPLC method: Samples were injected onto a 100×2.1 mm Waters Cortecs HILIC with a particle size of 1.6 μm. The mobile phase consisted of water (0.1% formic acid) and acetonitrile (0.1% formic acid). The analytic method utilized a gradient from 10% water (0.1% formic acid)/90% acetonitrile (0.1% formic acid) to 70% water (0.1% formic acid)/30% acetonitrile (0.1% formic acid). The HPLC instrument was equipped with a UV detector (280 nm). Compounds were identified by mass.

Compound	MIC Values, MRSA 1556 [1] [µg/mL]	MIC Values, MSSA 29213 [2] [µg/mL]	also measured
CCCCCCCCCC(=O)OCCNC1(C)CC(OC2C(Oc3c4cc5cc3Oc3ccc(cc3Cl)C(O)C3NC(=O)C(NC(=O)C5NC(=O)C(CC(N)=O)NC(=O)C(NC(=O)C(CC(C)C)NC)C(O)c5ccc(c(Cl)c5)O4)c4ccc(O)c(c4)-c4c(O)cc(O)cc4C(C(=O)O)NC3=O)OC(CO)C(O)C2O)OC(C)C1O (centres unmarked) [RV54]	0.167 (≈ 0.101 µM)	0.146 (≈ 0.0886 µM)	–
CCCCCCCCCC(=O)NCCNC1(C)CC(OC2C(Oc3c4cc5cc3Oc3ccc(cc3Cl)C(O)C3NC(=O)C(NC(=O)C5NC(=O)C(CC(N)=O)NC(=O)C(NC(=O)C(CC(C)C)NC)C(O)c5ccc(c(Cl)c5)O4)c4ccc(O)c(c4)-c4c(O)cc(O)cc4C(C(=O)O)NC3=O)OC(CO)C(O)C2O)OC(C)C1O (centres unmarked) [RV56]	0.063 (≈ 0.0383 µM)	0.063 (≈ 0.0383 µM)	–
CCCCCCCCCCCC(=O)NCCNC1(C)CC(OC2C(Oc3c4cc5cc3Oc3ccc(cc3Cl)C(O)C3NC(=O)C(NC(=O)C5NC(=O)C(CC(N)=O)NC(=O)C(NC(=O)C(CC(C)C)NC)C(O)c5ccc(c(Cl)c5)O4)c4ccc(O)c(c4)-c4c(O)cc(O)cc4C(C(=O)O)NC3=O)OC(CO)C(O)C2O)OC(C)C1O (centres unmarked) [RV62]	0.023 (≈ 0.0137 µM)	0.023 (≈ 0.0137 µM)	fold more efficacious than RV65 (MIC) ([1]; compared with RV65, the ester with the lowest measured MIC, Table 1, both strains): about 3 ×; degradant detected in plasma ([3]; 24 h incubation): 6%
CCCCCCCCCCCC(=O)OCCNC1(C)CC(OC2C(Oc3c4cc5cc3Oc3ccc(cc3Cl)C(O)C3NC(=O)C(NC(=O)C5NC(=O)C(CC(N)=O)NC(=O)C(NC(=O)C(CC(C)C)NC)C(O)c5ccc(c(Cl)c5)O4)c4ccc(O)c(c4)-c4c(O)cc(O)cc4C(C(=O)O)NC3=O)OC(CO)C(O)C2O)OC(C)C1O (centres unmarked) [RV65]	0.094 (≈ 0.0561 µM)	0.063 (≈ 0.0376 µM)	peak area for the cleaved glycopeptide, of the total [4]: about 42%; degradant detected in plasma ([3]; 6 h incubation): ~90%; metabolism in plasma compared to RV62 ([3]; over 24 h): metabolized faster
CNC(CC(C)C)C(=O)NC1C(=O)NC(CC(N)=O)C(=O)NC2C(=O)NC3C(=O)NC(C(=O)NC(C(=O)O)c4cc(O)cc(O)c4-c4cc3ccc4O)C(O)c3ccc(c(Cl)c3)Oc3cc2cc(c3OC2OC(CO)C(O)C(O)C2OC2CC(C)(NCCO)C(O)C(C)O2)Oc2ccc(cc2Cl)C1O (centres unmarked) [RV80]	1 (≈ 0.67 µM)	1 (≈ 0.67 µM)	–
CN[C@H](CC(C)C)C(=O)N[C@H]1C(=O)N[C@@H](CC(N)=O)C(=O)N[C@H]2C(=O)N[C@H]3C(=O)N[C@H](C(=O)N[C@@H](C(=O)O)c4cc(O)cc(O)c4-c4cc3ccc4O)[C@H](O)c3ccc(c(Cl)c3)Oc3cc2cc(c3O[C@@H]2O[C@H](CO)[C@@H](O)[C@H](O)[C@H]2O[C@H]2C[C@](C)(NCCN)[C@H](O)[C@H](C)O2)Oc2ccc(cc2Cl)[C@H]1O [RV82]	–	–	MIC [1]: 3 µg/mL (≈ 2.01 µM); MIC [2]: 3 µg/mL (≈ 2.01 µM)
CCCCCCCCCCCCCCCC(=O)OCCNC1(C)CC(OC2C(Oc3c4cc5cc3Oc3ccc(cc3Cl)C(O)C3NC(=O)C(NC(=O)C5NC(=O)C(CC(N)=O)NC(=O)C(NC(=O)C(CC(C)C)NC)C(O)c5ccc(c(Cl)c5)O4)c4ccc(O)c(c4)-c4c(O)cc(O)cc4C(C(=O)O)NC3=O)OC(CO)C(O)C2O)OC(C)C1O (centres unmarked) [RV89]	1.000 (≈ 0.577 µM)	0.500 (≈ 0.289 µM)	–
CCCCCCCC(=O)OCCNC1(C)CC(OC2C(Oc3c4cc5cc3Oc3ccc(cc3Cl)C(O)C3NC(=O)C(NC(=O)C5NC(=O)C(CC(N)=O)NC(=O)C(NC(=O)C(CC(C)C)NC)C(O)c5ccc(c(Cl)c5)O4)c4ccc(O)c(c4)-c4c(O)cc(O)cc4C(C(=O)O)NC3=O)OC(CO)C(O)C2O)OC(C)C1O (centres unmarked) [RV90]	0.250 (≈ 0.154 µM)	0.250 (≈ 0.154 µM)	–
CCCCCCCCCCCCCCCC(=O)NCCNC1(C)CC(OC2C(Oc3c4cc5cc3Oc3ccc(cc3Cl)C(O)C3NC(=O)C(NC(=O)C5NC(=O)C(CC(N)=O)NC(=O)C(NC(=O)C(CC(C)C)NC)C(O)c5ccc(c(Cl)c5)O4)c4ccc(O)c(c4)-c4c(O)cc(O)cc4C(C(=O)O)NC3=O)OC(CO)C(O)C2O)OC(C)C1O (centres unmarked) [RV91]	0.250 (≈ 0.144 µM)	0.188 (≈ 0.109 µM)	–
CCCCCCCC(=O)NCCNC1(C)CC(OC2C(Oc3c4cc5cc3Oc3ccc(cc3Cl)C(O)C3NC(=O)C(NC(=O)C5NC(=O)C(CC(N)=O)NC(=O)C(NC(=O)C(CC(C)C)NC)C(O)c5ccc(c(Cl)c5)O4)c4ccc(O)c(c4)-c4c(O)cc(O)cc4C(C(=O)O)NC3=O)OC(CO)C(O)C2O)OC(C)C1O (centres unmarked) [RV93]	0.125 (≈ 0.0772 µM)	0.125 (≈ 0.0772 µM)	–
CCCCCCCCCCCCNC(=O)CNC1(C)CC(OC2C(Oc3c4cc5cc3Oc3ccc(cc3Cl)C(O)C3NC(=O)C(NC(=O)C5NC(=O)C(CC(N)=O)NC(=O)C(NC(=O)C(CC(C)C)NC)C(O)c5ccc(c(Cl)c5)O4)c4ccc(O)c(c4)-c4c(O)cc(O)cc4C(C(=O)O)NC3=O)OC(CO)C(O)C2O)OC(C)C1O (centres unmarked) [RV95]	0.031 (≈ 0.0185 µM)	0.031 (≈ 0.0185 µM)	–
CCCCCCCCCCNCCN[C@@]1(C)C[C@H](O[C@H]2[C@H](Oc3c4cc5cc3Oc3ccc(cc3Cl)[C@@H](O)[C@@H](NC(=O)[C@@H](CC(C)C)NC)C(=O)N[C@@H](CC(N)=O)C(=O)N[C@H]5C(=O)N[C@H]3C(=O)N[C@H](C(=O)N[C@H](C(=O)O)c5cc(O)c(CNCP(=O)(O)O)c(O)c5-c5cc3ccc5O)[C@H](O)c3ccc(c(Cl)c3)O4)O[C@H](CO)[C@@H](O)[C@@H]2O)O[C@@H](C)[C@H]1O [Telavancin, telavancin, reference compound]	–	–	MIC [1]: 0.063 µg/mL (≈ 0.0359 µM); MIC [2]: 0.063 µg/mL (≈ 0.0359 µM)
